According to patent US7034208B1, “Ahas inhibiting herbicide resistant wheat and method for selection thereof” (BASF Aktiengellschaft, priority 1991, dated 2006):
Read-outs that look alike come from different tables or passages of the source.

Tests used:
[1] = system: mutant wheat selection FS2 and Fidel; assay: M3-M4 Wheat Herbicide Resistance Spectrum; format: in vivo; conditions: FS2 versus Fidel; postemergence
Description: In this experiment, the tolerance of imidazolinone-resistant wheat to three sulfonylurea herbicides (BEACON™, CLASSIC™ and OUST™ (BEACON™ is a registered trademark of Ciba-Geigy and is 2-[4,6-bis-(difluoro-methoxy)-pyrimidin-2-ylcarbamoylsulfamoyl]benzoic acid; CLASSIC™ is a registered trademark of E.I. du Pont de Nemours and Company and is the ethyl ester of o-[[(4-chloro-6-methoxy-2-pyrimidinyl)-carbamoyl]-sulfamoyl]-benzoic acid), a sulfamoylurea herbicide (Compound 3), a sulfonylcarboxamide (Compound 1), and an imidazolinone herbicide (Compound 7, which is 3-(4-isopropyl-4-methyl-5-oxo-2-imidazolin-2-yl)-2-methyl-crotonic acid), is examined to look for cross-tolerance to AHAS-inhibiting herbicides other than the imidazolinones. […] Each treatment consists of three replicates. In addition, there are six replicates each of FS2 and Fidel which are used as untreated controls. Plants are sprayed postemergence, 7 days after planting, with the following herbicides and rates:
The herbicides are applied as previously described. Plants are rated at two, three and four weeks after treatment with herbicide.

[2] = system: mutant wheat selections FS1-FS4 and Fidel; format: in vivo
Description: This greenhouse test examines the level and spectrum of herbicide resistance of the mutant selections at the whole plant level. […] These lines are bulked according to their parental lines: FS1, FS2, FS3 and FS4. Fidel (wild-type) is used is a control and for performance comparison purposes. Five seeds from each of these lines (including Fidel) are planted per pot in six inch Azalea pots and are later thinned to three plants per pot. Three replicates are used per treatment (chemical and rate) for each line, and six replicates per wheat line are used as untreated controls. Plants are sprayed postemergence, 10 days after planting, with the following herbicides and rates: […]

[3] = system: mutant wheat selection FS2 and Fidel; conditions: FS2 versus Fidel; postemergence
Description: In a second experiment, the mutant wheat selection, FS2, from bulked M3-M4 seed, and Fidel seed are planted in 6″ Azalea pots in sterile Metro Mix 350™. Three seeds are planted per pot initially; these are subsequently thinned to two plants. There are three replicates of each treatment. In addition, the untreated controls consist of 15 replicates each of Fidel and FS2. Plants are sprayed postemergence, 12 days after planting, with the following herbicides and rates: […]

[4] = system: AHAS (acetohydroxyacid synthase); assay: AHAS Enzyme Assay I and II (M4 Plants); format: biochemical, wheat; conditions: mutant selections; level lower than that for PURSUIT
Experimental: Enzyme Extraction: For the extraction of AHAS, 10 grams of tissue are powdered in liquid nitrogen and then homogenized in 100 mM potassium phosphate buffer (pH 7.5) containing 10 mM pyruvate, 5 mM MgCl2, 5 uM EDTA, 100 uM FAD, 1 mM valine, 1 mM leucine, 10% glycerol, and 10 mM cysteine. The homogenate is filtered through a nylon cloth (53 uM mesh) and centrifuged at 25,000 g for 20 minutes. The supernatant fraction is brought to 50% saturation with respect to (NH4)2SO4 and allowed to stand for 20-30 minutes on ice. It is then centrifuged at 25,000 g for 20 minutes and the supernatant is discarded. The ammonium sulfate pellet is dissolved in 50 mM potassium phosphate buffer (pH 7.5) containing 1 mM EDTA and 100 mM NaCl and used for the assay procedures.
AHAS Assay: AHAS activity is measured by estimation of the product, acetolactate, after conversion by decarboxylation in the presence of acid to acetoin. Standard reaction mixtures contain the enzyme in 50 mM potassium phosphate buffer (pH 7.0) containing 100 mM sodium pyruvate, 10 mM MgCl2, 1 mM thiamine pyrophosphate, and 10 uM FAD. This mixture is incubated at 37° C. for one hour after which time the reaction is stopped with the addition of […] to make a final concentration of 0.85% […] in the tube. The reaction product is allowed to decarboxylate at 60° C. for 15 minutes. The acetoin formed is determined by incubating with creatine (0.17%) and 1-napthol (1.7% in 4N NaOH) by the method of Westerfield (Westerfield, W. W., J. Biol. Chem., 161, 495-502 (1945)). Maximum color is observed by incubation at 60° C. for 15 minutes and then further incubation at room temperature for 15 minutes. The absorption of color complex is measured at 520 nm. Appropriate checks of direct acetoin formation during the enzyme assay are made. Each assay is run at least in duplicate and the experiments are repeated a minimum of two times.
Herbicide Application: Two flats are planted with approximately 100 seeds of each wheat selection (FS1, FS2, and FS4) and Fidel in sterile Metro Mix 350. Ten days later, each flat is sprayed postemergence with 62.5 g/ha of PURSUIT™. The spray delivery rate is 400 L/ha with a belt speed of 8.2 sec/rev using nozzle #65015E. Tween 20™ is used as a surfactant at 0.25% v/v. The plants are harvested three days later and assayed for AHAS activity.
Enzyme Extraction and AHAS Assay: As previously described.
Herbicide Application: As described above (Enzyme Assay I) except that the spray delivery rate is 950 l/ha with a belt speed of 12.8 sec/rev using nozzle #40015E.

wheat seeds = assay: Seed soak screen (Example 1, Step 1, Experiments 1-4); format: in vivo; conditions: for seedling appearance versus controls: by three to four weeks; for herbicide concentration necessary for lethality: seed soak
Experimental: The seeds are rinsed in sterile distilled water and then soaked in a herbicide concentration for a set period of time, as described below. Sets of twenty-five seeds are placed into 25 ml of the herbicide solution described below in a sterile 100×15 mm plastic petri dish and soaked for the designated time. The seeds are rinsed with water, dried with paper towels and planted (25 seeds/flat) approximately ½″ deep in 6×8 inch peat flats containing a moist, sterile, artificial soil, Metro Mix 350™ (Grace Company, Cambridge, Mass.). The treatments are evaluated at four weeks after treatment. The herbicides, rates and time periods evaluated are described below:
Each treatment is replicated four times.
Each treatment is replicated two times.
The protocol is as described above except that 35 seeds are soaked per petri dish; 25 seeds are still planted per flat. This experiment is repeated twice.

[5] = system: wheat selection FS4 and Fidel; assay: Field Trial II; format: in vivo; conditions: for effect on final plant height: resistant selection FS4, postemergent, six weeks after treatment
[6] = system: wheat seed of the susceptible cultivar Fidel; assay: Pre-emergence herbicide application, rate finding; format: in vivo; conditions: visual toxicity after three to four weeks
Experimental: A series of experiments is performed to determine the appropriate herbicide rate for this pre-emergent spray treatment. Wheat seed of the susceptible cultivar Fidel is planted in Metro Mix 350™ in 6×8 inch peat flats at a rate of 100 seeds per flat. The flats are watered prior to herbicide treatment. Three flats are sprayed per treatment. The herbicides are applied with a laboratory belt sprayer at a rate of 950 liters per hectare (L/ha) at a belt speed of 12.8 sec/rev using sprayer nozzle #40015E (Teejet™ Spraying Systems). After three to four weeks, the treatments are evaluated by visual observation for toxicity to the wheat seeds/seedlings.

[7] = system: wheat variety Fidel and resistant selections FS2 and FS4; assay: Preemergence Herbicide Tolerance; format: in vivo; conditions: pre-emergence application; plant growth after four weeks; versus Fidel
[8] = system: wheat selections FS2 and FS4 and Fidel; assay: Postemergence Herbicide Tolerance, upper limits; format: in vivo; conditions: four weeks after treatment
Description: In this second greenhouse test, the upper limits of the mutant selections' resistance to postemergent applications of PURSUIT™ and Compound 2 are examined. M4 seed of two of the mutant selections, FS2 and FS4, and seed of Fidel are used in this experiment. Five seeds from each line are planted per pot in sterile Metro Mix 350™ in six inch Azalea pots. Immediately prior to herbicide treatment, these plants are thinned to three plants per pot. Three replicates are used per treatment (chemical & rate) for each line, and six replicates per wheat line are used as untreated controls. The plants are sprayed postemergence, 10 days after planting, with the following herbicides and rates (g/ha):
The herbicides are applied as previously described. Plant height is measured immediately prior to spraying. Plant heights are also measured at two and four weeks after treatment, and shoot fresh weights measured at seven weeks after treatment.

[9] = mutant wheat FS1-FS4, postemergence, plant growth four weeks after treatment

In the case of `C/C(C(=O)O)=C(\C)C1=NC(C)(C(C)C)C(=O)N1` (centres unmarked) [Compound 7, 3-(4-isopropyl-4-methyl-5-oxo-2-imidazolin-2-yl)-2-methyl-crotonic acid], the resistance [1] is reported as “greater than 10 fold”.

With `COC(=O)c1ccccc1S(=O)(=O)NC(=O)Nc1nc(C)cc(C)n1` [OUST, methyl ester of o-[[3-(4,6-dimethylpyrimidin-2-yl)ureido]sulfonyl]-benzoic acid] the “increased tolerance of mutant wheat” value ([2]; in vivo) was ~2 fold, the “rate to which the mutant wheat is resistant” value ([2]; in vivo) was “more than 5 g/ha” and the “increased tolerance of the resistant wheat” value [3] was 2-4 fold. For the same molecule, the “resistance of AHAS activity to inhibition” value [4] was “Some resistance”.

`CC(C)C1(C)N=C(c2nc3ccccc3cc2C(=O)O)NC1=O` (centres unmarked) [SCEPTER, 2-(4-isopropyl-4-methyl-5-oxo-2-imidazolin-2-yl)-3-quinolinecarboxylic acid] was tested, and the “seedling appearance versus controls” value (wheat seeds; seed soak 500 uM for 48 hours) was “slightly shorter than controls”, the “seedling appearance versus controls” value (wheat seeds; seed soak 1-100 uM for 48 hours) was “indistinguishable from controls” and the “prevention of escapes (false positives)” value (wheat seeds; seed soak maximum 1000 uM for 48 hours, Experiment 2) was “still not high enough to prevent “escapes””. For the same molecule, the “resistance of AHAS activity to inhibition” value [4] was “Some resistance”.

For `COc1cc(OC)nc(NC(=O)NS(=O)(=O)c2ncccc2C(=O)N(C)C)n1` [ACCENT, 1-(4,6-dimethoxypyrimidin-2-yl)-3-(3-dimethylcarbamoyl-2-pyridylsulfonyl)urea], the cross resistance ([5]; FS4, after three weeks) was “no cross resistance”, the “tolerance of the resistant wheat” value ([5]; FS4, postemergent 20 and 40 g/ha) was “little or no tolerance” and the grain yield ([5]; both the resistant and susceptible Fidel, yields 10 weeks after treatment) was “little or no grain yield”.

For `CC(=O)NC(C)(C(=O)NS(=O)(=O)c1ccc(Cl)cc1)C(C)C` (centres unmarked) [Compound 1, 2-acetamido-N-[(p-chlorophenyl)sulfonyl]-2,3-dimethyl-butyramide], the “inhibitory effect on seed germination or seedling growth” value (wheat seeds; seed soak 500-2000 uM for 48, 72 or 96 hours) was “does not have an inhibitory effect on either seed germination or seedling growth”.

In the case of `Cc1cnc(C2=NC(C)(C(C)C)C(=O)N2)c(C(=O)O)c1` (centres unmarked) [CADRE, 2-(4-isopropyl-4-methyl-5-oxo-2-imidazolin-2-yl)-5-methylnicotinic acid], the “effect on final plant height” value [5] is reported as “no effect”.

With `COC(OC)c1cnc(C2=NC(C)(C(C)C)C(=O)N2)c(C(=O)O)c1` (centres unmarked) [Compound 8, 5-formyl-2-(4-isopropyl-4-methyl-5-oxo-2-imidazolin-2-yl)-nicotinic acid, 5-(dimethylacetal)] the “effect on final plant height” value [5] was “no effect”.

In the case of `CC(C)C1(C)N=C(c2ncccc2C(=O)O)NC1=O` (centres unmarked) [ARSENAL, 2-(4-isopropyl-4-methyl-5-oxo-2-imidazolin-2-yl)-nicotinic acid], the “effect on seed germination and seedling growth” value (wheat seeds; seed soak 1-500 uM for 48 hours, Experiment 1) is reported as “inhibits seed germination and seedling growth with increasing concentration”, the seedling growth (wheat seeds; seed soak 100 and 500 uM for 48 hours) is reported as “totally inhibit seedling growth” and the “herbicide concentration necessary for lethality” value (wheat seeds; exposure greater than 72 hours) is reported as 50 µM. The “herbicide concentration necessary for lethality” value (wheat seeds; length of exposure less than 72 hours) was 75 µM, the “most effective rate, pre-emergent spray” value [6] was 40-50 g/ha and the “rate to which the mutant wheat is resistant” value [2, 9] was “more than 48 g/ha”. For the same molecule, the “increased tolerance of FS2 and FS4” value [7] was “approximately 8 fold”.

In the case of `COCc1cnc(C2=NC(C)(C(C)C)C(=O)N2)c(C(=O)O)c1` (centres unmarked) [Compound 2, 2-(4-isopropyl-4-methyl-5-oxo-2-imidazolin-2-yl)-5-(methoxymethyl)-nicotinic acid], the “rate to which the mutant wheat is resistant” value [2, 9] is reported as “more than 80 g/ha”, the “increased tolerance of mutant wheat” value ([2]; mutant wheat FS1-FS4 versus Fidel, postemergence, four weeks after treatment) is reported as ~16 fold and the “rates up to which FS2 and FS4 plant heights equal the untreated controls” value [8] is reported as 25-50 g/ha. The “effect on final plant height” value [5] was “no effect”.
